Assay results published in patent EP3020415A1, “Thiol compounds for use in bacterial infections” (Université de Fribourg, priority 2014, dated 2016).
“And” between values parts separate entries of the source, which are not always exact repeats. Equal entries are not always repeated. Where two headings read alike, the source gives them in different places. Each block holds one compound with its values, some of them ahead of it.

Experiments:
KPC-3 = KPC-3 (Klebsiella pneumoniae, UniProt Q9F663, H272Y); assay: In-vitro inhibition of purified enzyme, non-metallo-enzyme negative control
IMP-1 = IMP-1 (Serratia marcescens, UniProt P52699); assay: biochemical
[1] = tested on: E. coli TOP10 pCR2.1-(PNDM-1-blaNDM-1-bleMBL); assay: Preliminary MIC of imipenem with DMPS, broth microdilution; type: cell-based; settings: MIC values of imipenem; 0 to 30 mM of DMPS; zinc-complemented M9CA medium; data not shown
[2] = in vivo, cited from earlier work
NDM-1 = NDM-1 (Klebsiella pneumoniae, UniProt C7C422); assay: biochemical
NDM-4 = NDM-4 (Escherichia coli, UniProt H6WZS9); assay: In-vitro inhibition of purified metallo-ß-lactamase, UV spectrophotometry
VIM-1 = VIM-1 (Pseudomonas aeruginosa, UniProt A0A0F7KYQ8); assay: biochemical
E. cloacae GIM-1 = assay: MIC of carbapenems with or without DMPS; type: cell-based; settings: Zn 5mg/L
Procedure: (§1) DMPS was evaluated as inhibitor of MBLs using a panel of strains producing the most clinically significant carbapenemases of the metallo-enzyme group. Minimum inhibitory concentrations (MICs) of carbapenems were determined in-vitro with strains (reference and clinical) producing main types of class B carbapenemases which are IMP, VIM, NDM, GIM and SPM with or without DMPS at various concentrations. […] The studied strains were clinical isolates (to mirror multidrug resistance in clinical isolates) for which a precise ß-lactamase gene content is known (Table 1). The strains were NDM, VIM-, IMP, SPM and GIM and producers as well as control of a non-MBL producer (OXA-48). The selected concentration of DMPS was 1-fold, […] and 30-fold (3 mM) that of the human peak serum concentration after a single IV dose of DMPS (Aposhian,1983).
(§2) A 100 mM DMPS stock solution (Sigma Aldrich, France) (pH 5.0) was prepared in 0.2 M NaOH as recommended (Maiorino et al. 1990) and pH was neutralized to pH 7.0 with NaHCO3 Na2Ca-EDTA (Sigma Aldrich, France) dissolved in water.

P. aeruginosa IMP-13 = assay: MIC of carbapenems with or without DMPS; type: cell-based
Procedure: as §1, §2

P. aeruginosa NDM1 = assay: MIC of carbapenems with or without DMPS; type: cell-based; settings: carbapenem without DMPS, Zn 5mg/L
Procedure: as §1, §2

K. pneumoniae NDM-1 = assay: MIC of carbapenems with or without DMPS; type: cell-based; settings: Zn 5mg/L
Procedure: as §1, §2

P. aeruginosa VIM-1 = assay: MIC of carbapenems with or without DMPS; type: cell-based
Procedure: as §1, §2

P. aeruginosa GIM-1 = assay: MIC of carbapenems with or without DMPS; type: cell-based; settings: Zn 5mg/L
Procedure: as §1, §2

A. baumannii NDM-1 = assay: MIC of carbapenems with or without DMPS; type: cell-based
Procedure: as §1, §2

E. coli NDM-5 = assay: MIC of carbapenems with or without DMPS; type: cell-based; settings: Zn 5mg/L
Procedure: as §1, §2

E. coli NDM-4 = assay: MIC of carbapenems with or without DMPS; type: cell-based; settings: Zn 5mg/L
Procedure: as §1, §2

C. freundii VIM-2 = assay: MIC of carbapenems with or without DMPS; type: cell-based; settings: Zn 5mg/L
Procedure: as §1, §2

P. aeruginosa VIM-2 = assay: MIC of carbapenems with or without DMPS; type: cell-based; settings: Zn 5mg/L
Procedure: as §1, §2

K. pneumoniae VIM-4 = assay: MIC of carbapenems with or without DMPS; type: cell-based; settings: Zn 5mg/L
Procedure: as §1, §2

K. pneumoniae IMP-4 = assay: MIC of carbapenems with or without DMPS; type: cell-based; settings: Zn 5mg/L
Procedure: as §1, §2

K. pneumoniae IMP-8 = assay: MIC of carbapenems with or without DMPS; type: cell-based; settings: Zn 5mg/L
Procedure: as §1, §2

E. coli NDM-1 = assay: MIC of carbapenems with or without DMPS; type: cell-based; settings: Zn 5mg/L
Procedure: as §1, §2

K. pneumoniae OXA-48 = assay: MIC of carbapenems with or without DMPS (non-MBL control); type: cell-based; settings: K. pneumoniae OXA-48 (control), carbapenem without DMPS, Zn 5mg/L
Procedure: as §1, §2

A. baumannii IMP-4 = assay: MIC of carbapenems with or without DMPS; type: cell-based; settings: Acinetobacter baumannii, IMP4, carbapenem without DMPS, Zn 5mg/L
Procedure: as §1, §2

P. putida VIM-2 = assay: MIC of carbapenems with or without DMPS; type: cell-based; settings: Pseudomonas putida, VIM2
Procedure: as §1, §2

P. aeruginosa SPM1 = assay: MIC of carbapenems with or without DMPS; type: cell-based; settings: Pseudomonas aeruginosa, carbapenem without DMPS, Zn 5mg/L
Procedure: as §1, §2

Structure (SMILES): O=S(=O)([O-])CC(S)CS.[Na+] (racemic) [DMPS]
IC50 (KPC-3): > 10000 µM | IC50 (IMP-1): 70 µM | maximal inhibition efficiency (DMPS concentration) [1]: 50 mM | serum concentration ([2]; iv): ca. 110 µM | elimination [2]: mostly eliminated by urines | IC50 (NDM-1): 80 µM | IC50 (NDM-4): 110 µM | IC50 (VIM-1): 180 µM

MIC (E. cloacae GIM-1; carbapenem without DMPS): 16 µg/mL | MIC (P. aeruginosa IMP-13; P. aeruginosa IMP-13, carbapenem without DMPS, Zn 5mg/L): 64 µg/mL | MIC (P. aeruginosa NDM1): 256 µg/mL | MIC (K. pneumoniae NDM-1; carbapenem without DMPS): 64 µg/mL | MIC (P. aeruginosa VIM-1; P. aeruginosa VIM-1, carbapenem without DMPS, Zn 5mg/L): 256 µg/mL | MIC (P. aeruginosa GIM-1; carbapenem without DMPS): 1,024 µg/ml | MIC (A. baumannii NDM-1; A. baumannii NDM-1, carbapenem without DMPS, Zn 5mg/L): 256 µg/mL | MIC (E. coli NDM-5; carbapenem without DMPS): 64 µg/mL | MIC (E. coli NDM-4; carbapenem without DMPS): 64 µg/mL | MIC (C. freundii VIM-2; carbapenem without DMPS): 0.06 µg/mL | MIC (P. aeruginosa VIM-2; carbapenem without DMPS): 1,024 µg/ml | MIC (K. pneumoniae VIM-4; carbapenem without DMPS): 32 µg/mL | MIC (K. pneumoniae IMP-4; carbapenem without DMPS): 16 µg/mL | MIC (K. pneumoniae IMP-8; carbapenem without DMPS): 2 µg/mL | MIC (E. coli NDM-1; carbapenem without DMPS): 32 µg/mL and 16 µg/mL | MIC (K. pneumoniae OXA-48): 32 µg/mL
Structure (SMILES): C[C@@H](O)[C@H]1C(=O)N2C(C(=O)O)=C(S[C@@H]3CN[C@H](C(=O)N(C)C)C3)[C@H](C)[C@H]12 [MEM, meropenem]

Structure (SMILES): C[C@@H](O)[C@H]1C(=O)N2C(C(=O)O)=C(SCCN=CN)C[C@H]12 [IPM, imipenem]
MIC (E. cloacae GIM-1; Enterobacter cloacae, GIM1, carbapenem without DMPS, read-out: MIC): 8 µg/mL | MIC (A. baumannii IMP-4): 64 µg/mL | MIC (P. aeruginosa IMP-13; Pseudomonas aeruginosa, IMP13): 128 µg/mL | MIC (P. aeruginosa NDM1; Pseudomonas aeruginosa, read-out: MIC): 1020 µg/mL | MIC (K. pneumoniae NDM-1; Klebsiella pneumoniae, NDM1, carbapenem without DMPS, read-out: MIC): 64 µg/mL | MIC (P. aeruginosa VIM-1; Pseudomonas aeruginosa, VIM1): 128 µg/mL | MIC (P. aeruginosa GIM-1; Pseudomonas aeruginosa, GIM1, carbapenem without DMPS, read-out: MIC): > 1020 µg/mL | MIC (A. baumannii NDM-1; Acinetobacter baumannii, NDM1): 128 µg/mL | MIC (E. coli NDM-5; Escherichia coli, NDM5, carbapenem without DMPS, read-out: MIC): 64 µg/mL | MIC (E. coli NDM-4; Escherichia coli, NDM4, carbapenem without DMPS, read-out: MIC): 64 µg/mL | MIC (P. putida VIM-2): 128 µg/mL | MIC (C. freundii VIM-2; Citrobacter freundii, VIM2, carbapenem without DMPS, read-out: MIC): 2 µg/mL | MIC (P. aeruginosa SPM1): 1020 µg/mL | MIC (P. aeruginosa VIM-2; Pseudomonas aeruginosa, VIM2, carbapenem without DMPS, read-out: MIC): 1020 µg/mL | MIC (K. pneumoniae VIM-4; Klebsiella pneumoniae, VIM4, carbapenem without DMPS, read-out: MIC): 64 µg/mL | MIC (K. pneumoniae IMP-4; Klebsiella pneumoniae, IMP4, carbapenem without DMPS, read-out: MIC): 16 µg/mL | MIC (K. pneumoniae IMP-8; Klebsiella pneumoniae, IMP8, carbapenem without DMPS, read-out: MIC): 8 µg/mL | MIC (E. coli NDM-1; Escherichia coli, NDM1, carbapenem without DMPS, read-out: MIC): 8 µg/mL | MIC (K. pneumoniae OXA-48; Klebsiella pneumoniae, OXA48, read-out: MIC): 32 µg/mL
